From ChEMBL document CHEMBL4428063, “Novel Pyrimidine Toll-like Receptor 7 and 8 Dual Agonists to Treat Hepatitis B Virus” (J Med Chem, 2016)
Calls of active or inactive are those of the source. The calls are words filed in the database; no cut-off is given here.

Experiments:
[1] = Intrinsic clearance in cynomolgus monkey hepatocytes at 1 uM measured after 120 mins; type: ADME, cell-based, Macaca fascicularis, Hepatocyte; conditions: 2 h
[2] = Tmax in C57Bl/6 mouse at 1 to 50 mg/kg, po; type: ADME, organism-based; conditions: in vivo
[3] = target: Toll-like receptor 4 (Homo sapiens) (UniProt O00206); assay: Agonist activity at wild-type human TLR4 expressed in HEK293 cells up to 25 uM measured after 6 hrs by NF-kappaB luciferase reporter gene assay; type: cell-based
Sequence of Toll-like receptor 4 (Homo sapiens) (O00206 whole entry): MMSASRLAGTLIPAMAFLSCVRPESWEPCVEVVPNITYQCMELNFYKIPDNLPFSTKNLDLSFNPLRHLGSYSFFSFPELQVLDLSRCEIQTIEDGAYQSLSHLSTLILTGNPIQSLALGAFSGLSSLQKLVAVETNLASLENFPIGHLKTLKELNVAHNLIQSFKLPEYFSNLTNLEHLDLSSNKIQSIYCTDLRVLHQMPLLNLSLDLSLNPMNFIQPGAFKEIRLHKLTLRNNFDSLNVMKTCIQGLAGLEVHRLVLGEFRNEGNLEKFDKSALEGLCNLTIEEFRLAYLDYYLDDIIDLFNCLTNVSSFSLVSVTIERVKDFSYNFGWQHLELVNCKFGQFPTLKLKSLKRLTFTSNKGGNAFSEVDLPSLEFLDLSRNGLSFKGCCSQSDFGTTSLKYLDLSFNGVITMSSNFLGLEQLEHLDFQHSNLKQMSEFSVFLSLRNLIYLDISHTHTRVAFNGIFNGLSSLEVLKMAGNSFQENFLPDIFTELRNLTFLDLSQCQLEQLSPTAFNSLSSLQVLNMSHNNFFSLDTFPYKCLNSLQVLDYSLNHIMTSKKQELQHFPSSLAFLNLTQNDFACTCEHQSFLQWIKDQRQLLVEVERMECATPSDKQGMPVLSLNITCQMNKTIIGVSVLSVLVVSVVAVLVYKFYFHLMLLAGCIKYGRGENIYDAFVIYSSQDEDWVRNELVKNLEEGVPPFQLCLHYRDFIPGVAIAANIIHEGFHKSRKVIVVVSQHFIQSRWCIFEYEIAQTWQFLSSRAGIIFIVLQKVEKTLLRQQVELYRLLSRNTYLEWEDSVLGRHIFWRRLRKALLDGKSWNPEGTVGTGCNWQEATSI

[4] = Intrinsic clearance in C57Bl/6 mouse hepatocytes at 1 uM measured after 120 mins; type: ADME, cell-based, Hepatocyte; conditions: 2 h
[5] = Tmax in Sprague-Dawley rat plasma at 10 mg/kg, po; type: ADME, organism-based
[6] = target: Toll-like receptor 3 (Homo sapiens) (UniProt O15455); assay: Agonist activity at wild-type human TLR3 expressed in HEK293 cells up to 25 uM measured after 6 hrs by NF-kappaB luciferase reporter gene assay; type: cell-based
Sequence of Toll-like receptor 3 (Homo sapiens) (O15455 whole entry): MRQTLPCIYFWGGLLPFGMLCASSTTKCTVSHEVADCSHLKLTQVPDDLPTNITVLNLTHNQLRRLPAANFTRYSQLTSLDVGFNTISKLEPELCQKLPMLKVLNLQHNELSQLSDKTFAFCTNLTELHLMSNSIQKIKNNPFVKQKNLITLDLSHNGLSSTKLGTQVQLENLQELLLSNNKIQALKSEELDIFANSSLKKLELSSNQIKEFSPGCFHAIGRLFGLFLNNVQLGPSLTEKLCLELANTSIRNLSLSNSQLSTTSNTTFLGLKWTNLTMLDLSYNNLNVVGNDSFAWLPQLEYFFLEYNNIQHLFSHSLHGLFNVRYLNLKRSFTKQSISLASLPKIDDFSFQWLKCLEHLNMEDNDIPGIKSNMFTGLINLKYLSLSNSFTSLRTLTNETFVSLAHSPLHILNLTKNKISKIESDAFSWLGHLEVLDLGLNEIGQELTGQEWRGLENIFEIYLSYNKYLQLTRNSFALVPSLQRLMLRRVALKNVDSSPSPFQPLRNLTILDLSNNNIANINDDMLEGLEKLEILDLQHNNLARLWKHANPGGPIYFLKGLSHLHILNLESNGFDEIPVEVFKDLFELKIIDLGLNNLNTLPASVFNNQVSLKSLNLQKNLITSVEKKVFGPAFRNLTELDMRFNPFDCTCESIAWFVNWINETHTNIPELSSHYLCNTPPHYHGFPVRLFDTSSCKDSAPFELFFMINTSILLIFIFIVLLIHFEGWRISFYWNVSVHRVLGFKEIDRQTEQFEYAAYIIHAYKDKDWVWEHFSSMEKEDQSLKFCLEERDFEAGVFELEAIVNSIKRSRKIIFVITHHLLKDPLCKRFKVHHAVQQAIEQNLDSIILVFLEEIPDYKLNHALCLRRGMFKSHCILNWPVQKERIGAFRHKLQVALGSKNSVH

[7] = Oral bioavailability in cynomolgus monkey at 30 mg/kg, measured after 24 hrs; type: ADME, organism-based, Macaca fascicularis; conditions: in vivo
[8] = Intrinsic clearance in human liver microsomes assessed per mg protein at 1 uM measured after 60 mins; type: ADME, Microsome; conditions: read-out: CLH
[9] = AUC(0 to last) in cynomolgus monkey plasma at 30 mg/kg, administered through oral gavage measured after 24 hrs; type: ADME, organism-based, Macaca fascicularis; design: dose 30 mg/kg, time 0 - last, route oral
[10] = Cmax in Sprague-Dawley rat liver at 10 mg/kg, po; type: ADME, organism-based; design: dose 10 mg/kg, route oral
[11] = tested on: HepG2; assay: Cytotoxicity against human HepG2 cells measured after 72 hrs by multiplex end point analysis; type: cell-based; conditions: hepg2, 72 h
[12] = target: T1, Toll-like receptor 1 (Homo sapiens) (UniProt Q15399); assay: Agonist activity at wild-type human TLR1 expressed in HEK293 cells up to 25 uM measured after 6 hrs by NF-kappaB luciferase reporter gene assay; type: cell-based
T1 sequence (whole entry): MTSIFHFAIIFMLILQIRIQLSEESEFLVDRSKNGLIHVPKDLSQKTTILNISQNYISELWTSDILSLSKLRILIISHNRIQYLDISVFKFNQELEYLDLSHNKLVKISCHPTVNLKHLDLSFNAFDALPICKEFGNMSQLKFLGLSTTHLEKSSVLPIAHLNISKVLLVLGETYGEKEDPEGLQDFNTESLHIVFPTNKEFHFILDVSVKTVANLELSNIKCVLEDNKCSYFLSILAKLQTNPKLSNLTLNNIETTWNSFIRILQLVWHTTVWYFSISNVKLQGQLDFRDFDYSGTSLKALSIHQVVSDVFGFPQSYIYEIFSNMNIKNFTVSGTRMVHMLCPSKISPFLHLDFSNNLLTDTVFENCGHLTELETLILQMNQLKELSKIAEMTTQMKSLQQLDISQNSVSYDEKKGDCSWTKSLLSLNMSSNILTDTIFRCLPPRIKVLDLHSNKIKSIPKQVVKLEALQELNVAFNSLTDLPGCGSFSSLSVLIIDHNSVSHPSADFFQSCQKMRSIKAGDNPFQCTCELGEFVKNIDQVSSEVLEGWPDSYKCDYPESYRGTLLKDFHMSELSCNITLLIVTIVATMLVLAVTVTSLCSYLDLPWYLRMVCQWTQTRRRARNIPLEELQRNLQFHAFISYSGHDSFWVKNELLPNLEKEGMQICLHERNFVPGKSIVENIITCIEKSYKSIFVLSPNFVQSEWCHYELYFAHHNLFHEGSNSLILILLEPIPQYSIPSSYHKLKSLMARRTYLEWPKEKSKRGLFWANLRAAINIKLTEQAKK

[13] = Plasma concentration in C57Bl/6 mouse infected with HBV genotype D at 5 mg/kg, po dosed once per week for 8 weeks and measured after 164 hrs after dosing prior to subsequent dosing; type: ADME, organism-based; conditions: in vivo
[14] = Tmax in cynomolgus monkey plasma at 3 mg/kg, administered through oral gavage measured after 24 hrs; type: ADME, organism-based, Macaca fascicularis
[15] = target: T2, Toll-like receptor 8 (Homo sapiens) (UniProt Q9NR97); assay: Agonist activity at human TLR8 expressed in HEK293 cells assessed as measured after 6 hrs by NF-kappaB luciferase reporter gene assay; type: cell-based
T2 sequence (whole entry): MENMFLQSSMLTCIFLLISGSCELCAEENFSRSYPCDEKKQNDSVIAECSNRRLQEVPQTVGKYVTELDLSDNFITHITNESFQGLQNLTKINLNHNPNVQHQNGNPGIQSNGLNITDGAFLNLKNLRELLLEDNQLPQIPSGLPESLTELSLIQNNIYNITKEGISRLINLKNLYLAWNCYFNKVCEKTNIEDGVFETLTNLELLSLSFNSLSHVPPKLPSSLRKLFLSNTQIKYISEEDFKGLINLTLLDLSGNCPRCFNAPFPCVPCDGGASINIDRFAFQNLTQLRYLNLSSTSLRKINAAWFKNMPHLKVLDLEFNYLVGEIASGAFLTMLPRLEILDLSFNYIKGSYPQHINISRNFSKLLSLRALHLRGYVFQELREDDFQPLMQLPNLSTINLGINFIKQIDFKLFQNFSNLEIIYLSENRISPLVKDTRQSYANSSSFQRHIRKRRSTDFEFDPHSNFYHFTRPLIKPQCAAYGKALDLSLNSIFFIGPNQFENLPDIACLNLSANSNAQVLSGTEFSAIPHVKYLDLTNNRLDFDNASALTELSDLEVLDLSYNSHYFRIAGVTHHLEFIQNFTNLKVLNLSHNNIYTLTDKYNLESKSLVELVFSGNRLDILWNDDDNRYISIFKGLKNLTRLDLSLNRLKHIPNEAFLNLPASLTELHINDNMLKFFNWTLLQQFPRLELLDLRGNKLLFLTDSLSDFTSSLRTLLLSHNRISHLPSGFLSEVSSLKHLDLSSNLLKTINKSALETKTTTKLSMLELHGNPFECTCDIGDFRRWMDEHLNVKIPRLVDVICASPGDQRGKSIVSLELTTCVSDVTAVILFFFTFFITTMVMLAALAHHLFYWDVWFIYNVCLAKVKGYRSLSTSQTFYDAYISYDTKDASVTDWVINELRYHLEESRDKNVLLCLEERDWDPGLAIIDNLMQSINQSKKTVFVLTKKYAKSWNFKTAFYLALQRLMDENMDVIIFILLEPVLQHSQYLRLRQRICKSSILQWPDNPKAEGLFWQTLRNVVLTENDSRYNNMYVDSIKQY

[16] = Solubility of the compound; type: physicochemical
[17] = Cmax in Sprague-Dawley rat plasma at 10 mg/kg, po; type: ADME, organism-based; design: dose 10 mg/kg, route oral
[18] = AUC(0 to last) in cynomolgus monkey plasma at 9 mg/kg, administered through oral gavage measured after 24 hrs; type: ADME, organism-based, Macaca fascicularis; design: dose 9 mg/kg, route oral, time 0 - last

CCCC[C@@H](CCO)Nc1nc(N)ncc1OC
CLH [1]: 103 µL/min | Tmax [2]: 30 to 60 min | Activity [3]: inactive | CLH [4]: 20 µL/min | Tmax [5]: 1 h | Activity [6]: inactive | bioavailability [7]: 3.9% | microsomal CLint at 1 µM [8]: < 4 µL/min/mg | AUC(0-t) at 24 h [9]: 583 ng·h/mL | Cmax [10]: 1710 ng/g | EC20 [11]: > 86 µM | Activity [12]: inactive | Drug uptake [13]: Not Active | Tmax [14]: 1 h | LED [15]: 1.6 µM | solubility [16]: Soluble | Cmax [17]: 65 ng/mL | AUC(0-t) at 24 h [18]: 72 ng·h/mL
